In ChEMBL document CHEMBL5653631, “A Potent and Selective ULK1 Inhibitor Suppresses Autophagy and Sensitizes Cancer Cells to Nutrient Stress” (iScience, 2018) one finds fold change (FC) and inhibition data, which are given here for 2 molecules.

Structures are written as SMILES.

The term inhibition denotes the percentage by which the read-out fell short of the control.

The target in test [1] is T1, cGMP-dependent protein kinase 1 (Homo sapiens) (UniProt Q13976).
T1 sequence (whole entry): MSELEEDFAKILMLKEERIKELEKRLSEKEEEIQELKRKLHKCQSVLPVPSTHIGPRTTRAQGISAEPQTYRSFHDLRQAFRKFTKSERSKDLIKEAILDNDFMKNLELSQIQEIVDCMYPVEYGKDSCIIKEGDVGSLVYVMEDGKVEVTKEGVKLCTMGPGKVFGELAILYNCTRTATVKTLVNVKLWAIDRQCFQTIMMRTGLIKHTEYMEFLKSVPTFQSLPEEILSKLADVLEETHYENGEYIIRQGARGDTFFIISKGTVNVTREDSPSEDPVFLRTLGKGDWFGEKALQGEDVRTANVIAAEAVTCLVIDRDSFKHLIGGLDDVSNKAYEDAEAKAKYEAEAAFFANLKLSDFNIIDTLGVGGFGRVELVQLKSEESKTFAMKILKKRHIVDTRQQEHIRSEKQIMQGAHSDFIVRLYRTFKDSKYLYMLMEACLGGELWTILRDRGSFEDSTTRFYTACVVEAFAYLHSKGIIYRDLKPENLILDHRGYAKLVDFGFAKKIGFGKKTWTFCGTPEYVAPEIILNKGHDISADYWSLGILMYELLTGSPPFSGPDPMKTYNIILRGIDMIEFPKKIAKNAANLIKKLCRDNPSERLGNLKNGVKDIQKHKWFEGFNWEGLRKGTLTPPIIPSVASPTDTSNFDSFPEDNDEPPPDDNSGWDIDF
Kind of test: Inhibition of human recombinant PKG1 at 40 nM related to control ULK1.

Test [2] addresses Cell division cycle 7-related protein kinase (Homo sapiens) (UniProt O00311). Kind of test: Inhibition of human recombinant CDC7 at 40 nM related to control ULK1.
Test [3] concerns the target Death-associated protein kinase 3 (Homo sapiens) (UniProt O43293). The experiment in a line: Inhibition of human recombinant DAPK3 at 15 nM in presence of ATP by radiometric assay relative to control.
Test [4] addresses Protein kinase C eta type (Homo sapiens) (UniProt P24723). The experiment in a line: Inhibition of human recombinant PKCH at 15 nM related to control ULK1.
Test [5] concerns the target Cyclin-dependent kinase 3 (Homo sapiens) (UniProt Q00526). The experiment in a line: Inhibition of human recombinant CDK3 at 15 nM in presence of ATP by radiometric assay relative to control.
Test [6] addresses PAS domain-containing serine/threonine-protein kinase (Homo sapiens) (UniProt Q96RG2). Kind of test: Inhibition of human recombinant PASK at 15 nM related to control ULK1.
Test [7] deals with T2, Serine/threonine-protein kinase BRSK1 (Homo sapiens) (UniProt Q8TDC3).
T2 sequence (whole entry): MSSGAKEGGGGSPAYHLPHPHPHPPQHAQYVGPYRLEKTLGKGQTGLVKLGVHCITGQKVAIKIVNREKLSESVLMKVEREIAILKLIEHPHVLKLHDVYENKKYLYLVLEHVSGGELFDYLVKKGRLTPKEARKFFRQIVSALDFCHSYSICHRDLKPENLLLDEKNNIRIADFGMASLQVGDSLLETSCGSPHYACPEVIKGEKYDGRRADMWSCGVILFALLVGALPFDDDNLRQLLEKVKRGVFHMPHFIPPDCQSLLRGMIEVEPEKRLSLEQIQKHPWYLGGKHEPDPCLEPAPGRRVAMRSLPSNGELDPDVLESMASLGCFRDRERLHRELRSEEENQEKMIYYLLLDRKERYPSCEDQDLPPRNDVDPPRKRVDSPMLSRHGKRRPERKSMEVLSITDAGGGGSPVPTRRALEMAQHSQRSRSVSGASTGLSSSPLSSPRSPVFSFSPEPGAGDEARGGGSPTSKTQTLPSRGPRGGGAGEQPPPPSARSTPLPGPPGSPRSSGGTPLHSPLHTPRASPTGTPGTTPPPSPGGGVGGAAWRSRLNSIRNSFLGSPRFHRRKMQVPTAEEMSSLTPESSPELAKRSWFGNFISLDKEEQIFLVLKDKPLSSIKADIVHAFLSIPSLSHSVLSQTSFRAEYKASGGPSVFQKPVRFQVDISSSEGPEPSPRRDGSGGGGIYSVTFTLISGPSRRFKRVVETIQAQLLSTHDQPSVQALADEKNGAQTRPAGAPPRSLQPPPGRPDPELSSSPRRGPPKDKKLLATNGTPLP
The experiment in a line: Inhibition of human recombinant BRSK1 at 15 nM related to control ULK1.

Test [8] has as its target T3, Mitogen-activated protein kinase kinase kinase kinase 2 (Homo sapiens) (UniProt Q12851).
T3 sequence (whole entry): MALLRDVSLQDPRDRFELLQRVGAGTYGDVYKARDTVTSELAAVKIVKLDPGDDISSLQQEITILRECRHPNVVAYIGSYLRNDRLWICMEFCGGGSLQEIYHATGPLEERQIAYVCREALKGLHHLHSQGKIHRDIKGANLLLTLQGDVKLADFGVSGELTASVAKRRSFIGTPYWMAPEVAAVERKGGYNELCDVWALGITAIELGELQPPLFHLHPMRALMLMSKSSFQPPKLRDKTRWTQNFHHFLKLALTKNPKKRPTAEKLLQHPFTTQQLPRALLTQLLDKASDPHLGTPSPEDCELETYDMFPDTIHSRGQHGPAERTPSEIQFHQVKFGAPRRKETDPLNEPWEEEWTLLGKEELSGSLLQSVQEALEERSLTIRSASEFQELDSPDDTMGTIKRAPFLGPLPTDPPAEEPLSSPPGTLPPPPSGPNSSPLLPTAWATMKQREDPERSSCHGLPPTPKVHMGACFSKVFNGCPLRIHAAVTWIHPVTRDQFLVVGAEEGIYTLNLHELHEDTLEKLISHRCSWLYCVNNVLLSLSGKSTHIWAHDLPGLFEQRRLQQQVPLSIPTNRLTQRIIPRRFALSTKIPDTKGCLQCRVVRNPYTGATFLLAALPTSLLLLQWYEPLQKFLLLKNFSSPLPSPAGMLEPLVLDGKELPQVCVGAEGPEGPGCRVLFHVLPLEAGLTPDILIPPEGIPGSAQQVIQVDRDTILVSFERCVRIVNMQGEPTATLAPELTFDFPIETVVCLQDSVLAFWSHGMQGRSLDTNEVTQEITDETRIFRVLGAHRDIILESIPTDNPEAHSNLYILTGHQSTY
Kind of test: Inhibition of human recombinant GCK at 15 nM related to control ULK1.

The target in test [9] is Cyclin-dependent kinase-like 1 (Homo sapiens) (UniProt Q00532). Kind of test: Inhibition of human recombinant CDKL1 at 15 nM related to control ULK1.
Sequence of Cyclin-dependent kinase-like 1 (Homo sapiens) (Q00532 whole entry): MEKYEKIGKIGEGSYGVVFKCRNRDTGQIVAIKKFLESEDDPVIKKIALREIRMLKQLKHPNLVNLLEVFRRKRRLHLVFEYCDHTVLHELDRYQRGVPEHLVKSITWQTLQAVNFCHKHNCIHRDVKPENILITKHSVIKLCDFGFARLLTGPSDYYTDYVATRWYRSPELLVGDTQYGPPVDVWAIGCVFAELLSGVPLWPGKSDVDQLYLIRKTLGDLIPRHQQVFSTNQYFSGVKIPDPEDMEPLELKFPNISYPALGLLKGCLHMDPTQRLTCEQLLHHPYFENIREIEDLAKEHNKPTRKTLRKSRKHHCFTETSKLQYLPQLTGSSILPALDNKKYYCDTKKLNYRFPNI

Sequence of Cell division cycle 7-related protein kinase (Homo sapiens) (O00311 whole entry, looked up): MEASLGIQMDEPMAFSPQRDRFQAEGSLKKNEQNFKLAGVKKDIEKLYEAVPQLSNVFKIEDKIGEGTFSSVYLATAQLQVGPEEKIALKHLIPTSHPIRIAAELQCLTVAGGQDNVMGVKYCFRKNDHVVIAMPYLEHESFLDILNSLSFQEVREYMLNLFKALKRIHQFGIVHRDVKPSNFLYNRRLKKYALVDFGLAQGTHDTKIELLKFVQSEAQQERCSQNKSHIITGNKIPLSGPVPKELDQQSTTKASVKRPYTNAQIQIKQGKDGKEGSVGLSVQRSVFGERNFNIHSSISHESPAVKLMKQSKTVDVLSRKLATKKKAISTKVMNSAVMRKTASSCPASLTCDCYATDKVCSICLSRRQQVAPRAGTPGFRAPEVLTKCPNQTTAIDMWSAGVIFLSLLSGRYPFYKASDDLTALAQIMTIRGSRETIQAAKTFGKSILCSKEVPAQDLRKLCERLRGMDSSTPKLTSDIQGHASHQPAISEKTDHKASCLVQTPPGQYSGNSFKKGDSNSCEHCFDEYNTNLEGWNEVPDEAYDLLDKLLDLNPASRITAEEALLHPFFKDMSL
Sequence of Cyclin-dependent kinase 3 (Homo sapiens) (Q00526 whole entry, looked up, the tested form may be a part): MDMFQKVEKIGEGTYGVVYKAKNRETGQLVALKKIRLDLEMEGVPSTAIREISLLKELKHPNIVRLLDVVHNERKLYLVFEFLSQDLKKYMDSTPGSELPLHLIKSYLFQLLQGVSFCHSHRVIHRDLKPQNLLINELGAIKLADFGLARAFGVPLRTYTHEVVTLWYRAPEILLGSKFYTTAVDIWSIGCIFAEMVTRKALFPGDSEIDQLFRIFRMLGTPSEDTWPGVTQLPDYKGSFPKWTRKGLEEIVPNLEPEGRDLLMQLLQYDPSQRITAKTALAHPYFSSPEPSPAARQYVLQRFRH
Sequence of PAS domain-containing serine/threonine-protein kinase (Homo sapiens) (Q96RG2 whole entry, the tested form may be a part): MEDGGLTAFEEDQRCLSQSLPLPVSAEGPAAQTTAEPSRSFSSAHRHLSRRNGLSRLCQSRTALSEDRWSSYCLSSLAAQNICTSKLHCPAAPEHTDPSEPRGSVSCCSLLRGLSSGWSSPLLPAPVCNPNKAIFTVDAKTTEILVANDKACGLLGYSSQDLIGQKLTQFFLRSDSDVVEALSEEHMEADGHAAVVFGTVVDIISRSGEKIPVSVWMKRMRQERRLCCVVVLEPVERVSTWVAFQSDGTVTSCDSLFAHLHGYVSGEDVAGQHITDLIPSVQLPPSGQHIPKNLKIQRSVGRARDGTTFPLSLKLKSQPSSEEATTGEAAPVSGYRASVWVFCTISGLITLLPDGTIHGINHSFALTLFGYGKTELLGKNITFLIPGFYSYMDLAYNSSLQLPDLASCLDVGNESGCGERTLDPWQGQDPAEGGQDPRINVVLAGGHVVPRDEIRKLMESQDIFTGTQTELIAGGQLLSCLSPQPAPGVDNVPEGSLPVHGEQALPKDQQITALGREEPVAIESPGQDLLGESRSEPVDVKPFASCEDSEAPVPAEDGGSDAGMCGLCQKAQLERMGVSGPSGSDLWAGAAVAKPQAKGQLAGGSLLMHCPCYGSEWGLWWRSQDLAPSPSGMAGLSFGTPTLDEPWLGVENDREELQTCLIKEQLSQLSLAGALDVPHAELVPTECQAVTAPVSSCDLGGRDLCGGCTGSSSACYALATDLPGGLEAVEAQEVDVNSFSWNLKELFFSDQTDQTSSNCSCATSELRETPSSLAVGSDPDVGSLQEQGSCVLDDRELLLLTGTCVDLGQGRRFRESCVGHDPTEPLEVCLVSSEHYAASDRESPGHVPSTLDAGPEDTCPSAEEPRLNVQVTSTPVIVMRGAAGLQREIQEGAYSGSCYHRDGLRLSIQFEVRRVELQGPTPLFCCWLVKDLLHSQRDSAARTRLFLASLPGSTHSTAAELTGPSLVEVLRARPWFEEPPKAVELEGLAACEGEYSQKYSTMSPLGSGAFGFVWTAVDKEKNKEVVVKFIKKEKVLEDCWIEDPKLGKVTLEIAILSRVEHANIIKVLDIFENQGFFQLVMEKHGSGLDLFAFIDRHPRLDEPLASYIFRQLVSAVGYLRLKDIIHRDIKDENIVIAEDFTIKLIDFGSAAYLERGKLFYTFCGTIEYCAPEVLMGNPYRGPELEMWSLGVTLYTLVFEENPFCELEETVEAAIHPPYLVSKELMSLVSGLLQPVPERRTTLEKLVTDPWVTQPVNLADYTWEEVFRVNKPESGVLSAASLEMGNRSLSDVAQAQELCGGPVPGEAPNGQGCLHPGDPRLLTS
Sequence of Death-associated protein kinase 3 (Homo sapiens) (O43293 whole entry, looked up): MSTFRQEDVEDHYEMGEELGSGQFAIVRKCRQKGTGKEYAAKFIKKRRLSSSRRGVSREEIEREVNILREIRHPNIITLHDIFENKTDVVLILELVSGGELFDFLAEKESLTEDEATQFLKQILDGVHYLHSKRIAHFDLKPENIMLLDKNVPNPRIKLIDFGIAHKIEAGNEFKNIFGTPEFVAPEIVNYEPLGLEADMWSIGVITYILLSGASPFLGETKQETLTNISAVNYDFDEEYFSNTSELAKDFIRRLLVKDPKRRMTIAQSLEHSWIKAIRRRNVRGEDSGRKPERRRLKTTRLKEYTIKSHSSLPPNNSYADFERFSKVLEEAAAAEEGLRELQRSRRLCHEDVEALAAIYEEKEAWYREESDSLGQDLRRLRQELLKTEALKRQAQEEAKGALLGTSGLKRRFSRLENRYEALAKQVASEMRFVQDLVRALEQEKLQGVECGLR
Sequence of Protein kinase C eta type (Homo sapiens) (P24723 whole entry): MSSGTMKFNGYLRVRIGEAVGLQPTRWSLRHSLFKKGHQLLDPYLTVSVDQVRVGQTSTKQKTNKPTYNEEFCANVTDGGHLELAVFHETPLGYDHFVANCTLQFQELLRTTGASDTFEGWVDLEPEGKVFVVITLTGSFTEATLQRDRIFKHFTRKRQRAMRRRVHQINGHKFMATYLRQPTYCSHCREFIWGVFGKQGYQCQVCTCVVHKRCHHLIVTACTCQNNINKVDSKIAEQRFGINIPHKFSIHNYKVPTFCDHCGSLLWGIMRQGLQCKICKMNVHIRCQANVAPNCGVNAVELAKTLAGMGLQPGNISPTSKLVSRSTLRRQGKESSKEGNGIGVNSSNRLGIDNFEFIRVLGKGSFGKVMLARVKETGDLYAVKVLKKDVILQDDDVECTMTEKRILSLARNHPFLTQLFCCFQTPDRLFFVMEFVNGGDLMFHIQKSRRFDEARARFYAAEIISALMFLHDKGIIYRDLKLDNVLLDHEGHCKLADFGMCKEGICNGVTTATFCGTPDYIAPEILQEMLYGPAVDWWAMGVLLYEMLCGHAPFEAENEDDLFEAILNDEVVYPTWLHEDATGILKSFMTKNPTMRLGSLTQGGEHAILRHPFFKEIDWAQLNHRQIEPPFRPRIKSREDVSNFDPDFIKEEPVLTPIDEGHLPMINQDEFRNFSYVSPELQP

Turning to `O=C(N[C@@H](C1CC1)C(F)(F)F)c1cc(-c2cnn3cc(-c4ccc(F)cc4)cnc23)cs1`, the fold change (FC) amounted to 0.08 in test [1] and 0.53 in test [2].

For the molecule `CC(C)[C@H](NC(=O)c1cc(-c2cnn3cc(-c4ccc(OCCN5CCCCC5)cc4)cnc23)cs1)C(F)(F)F`, the inhibition in [3] came out at 0%; in test [5], 5%. Moreover, the fold change (FC) in test [4] worked out at 0; in test [6], 0; in test [7], 0.15; in test [8] it was 0.39; in [9] it was 0.27.
